SMILES	boiling point [°C]	melting point [°C]	log10 Koc (L/kg)	log10 vapour pressure (mmHg)	log10 Henry constant (atm·m³/mol)	log10 Koa	ready biodegradability	log10 biodegradation half-life (days)
COC(=O)c1cccc(OC)c1	248							
CC(=O)Oc1ccc(OC(C)=O)c(-c2ccccc2)c1		68						
CCOP(=S)(NC(C)C)Oc1ccccc1C(=O)OC(C)C (centres undefined)		-12	2.78	-5.52				
Nc1cc(Cl)ccc1O		140						
Cc1cccc(C=O)c1	199							
CCCCCCCCCCCCCCCCOC(=O)C(C)O (centres undefined)		41						
Cc1cccc(Oc2cccc(C)c2)c1	284							
O=C(O)c1cc(Cl)c(Cl)cc1Cl		166						
C=C(C)CCC(C)=O	150							
NC(N)=N/C(N)=N/c1ccccc1		143						
O=C(O)c1cc(Cl)cc(Cl)c1Cl		166		-3.51				
CCN(CC)C(=S)[S-].[Na+]		98						
C=CCOC(=O)CC(C)=O	196	-85						
O=C(Nc1ccc(Oc2ccc(Cl)cc2)c(Cl)c1)c1cc(I)cc(I)c1O		169						
O=C=Nc1cccc([N+](=O)[O-])c1		51						
COP(=S)(OC)SCSc1ccc(Cl)cc1			4.67					
COc1c(C(C)(C)C)cc([N+](=O)[O-])c(C)c1[N+](=O)[O-]		85						
CCC(C)O (centres undefined)				1.26	-5.04	3.85	readily biodegradable	
CCCC(=O)OCCC(C)C	179	-73.2		-0.0223				
COc1ccc2c(OC(C)=O)c(OC)c(OC)c(OC(C)=O)c2c1		77.5						
O=C(O)c1cccc(I)c1		188						
OC(O)C(Br)(Br)Br		53.5						

SMILES	boiling point [°C]	melting point [°C]	log10 Koc (L/kg)	log10 vapour pressure (mmHg)	log10 Henry constant (atm·m³/mol)	log10 Koa	ready biodegradability	log10 biodegradation half-life (days)
Cc1csc(N)n1		45.5						
CC(C)(C)NCC(O)c1ccc(O)c(CO)c1 (centres undefined)		151						
CCCOC(=O)c1ccoc1	211							
CCOCCOC(=O)C=Cc1ccc(OC)cc1		-25						
COc1cc(NC(=O)CC(C)=O)c(OC)cc1Cl							not readily biodegradable	
COc1cc2c(cc1O)[C@H](Cc1ccc(O)cc1)NCC2		220						
CC(C)(C)NCCO	176	44					not readily biodegradable	
CC(C=O)Cc1ccc(C(C)(C)C)cc1 (centres undefined)							not readily biodegradable	
OCCNCCNCCO		97.5						
COC(=O)C1(S(=O)(=O)c2ccc(Cl)cc2)CC1		116						
CNP(=O)(NC)Oc1ccccc1		102	1.51					
[O-][n+]1ccccc1S		70.5						
CC(C)C1CCCCC1	155	-89.4		0.681				
CCCCC		-130		2.71	0.0969	1.96	readily biodegradable	0.699
CC(C)NCC(O)COc1cccc2[nH]ccc12 (centres undefined)		171						
NC1CCCCC1	134	-17.7		1	-5.38		readily biodegradable	
C[C@@H]1CCCCN1	120			1.29				
Ic1cccs1	181	-40		0.906				
C1CNCCNC1	169	43.5						
CN(C)C(O)=Nc1ccc(-n2nc(C(C)(C)C)oc2=O)c(Cl)c1		193						
CCOC(=O)c1cc([N+](=O)[O-])cc([N+](=O)[O-])c1		94	2.74					
CCCCC(CC)COC(=O)c1ccccc1C(=O)OCC(CC)CCCC (centres undefined)	384	-55	4.94	-6.85			not readily biodegradable	

SMILES	boiling point [°C]	melting point [°C]	log10 Koc (L/kg)	log10 vapour pressure (mmHg)	log10 Henry constant (atm·m³/mol)	log10 Koa	ready biodegradability	log10 biodegradation half-life (days)
CCC(C)C1CCCCC1 (centres undefined)	179			0.37				
CC(C)(Cl)C=O	90							
CCCCCCN1CC(C(=O)OC)CC1=O (centres undefined)		4						
CCOCCOCC	119	-74		1.53				
CCOC(=O)Cc1ccccc1	227	-29.4	1.89					
CC(C)CCCCCCOC(=O)c1ccccc1C(=O)OCCCCCCC(C)C							readily biodegradable	
C=CCCC(C)C	85.3							
C=COc1ccccc1	156							
CC(=O)C(Cl)(Cl)Cl	149							
CC(C)(C)C(=O)OCOc1ccccc1C(N)=O		95						
CC(C)(C)c1cc(-n2nc3ccccc3n2)c(O)c(C(C)(C)C)c1							not readily biodegradable	
CCCN(CCC)CCC	156	-93.5		0.179				
C[C@]12CC[C@H]3[C@@H](CCC4=CC(=O)CC[C@@H]43)[C@@H]1CC[C@@H]2OC(=O)CCc1ccccc1		95.5						
CC[C@@]12CCCN(CCc3c([nH]c4ccccc34)CC1)C2		146						
CCCCc1cccc(O)c1	248							
Cc1ccc(N=Nc2ccccc2)cc1	312	71.5						
CCCCC(CCCC)c1ccncc1							readily biodegradable	
CCCCCC(=O)OC(=O)CCCCC		-41						
CC1CCCC(C)(C)C1 (centres undefined)	137	-65.7		1.03				
CCC(C)Cl (centres undefined)	68	-140		2.19	-1.62			
c1ccc2c(c1)OCO2	172							
Clc1cc(Cl)c(-c2ccc(Cl)c(Cl)c2Cl)cc1Cl			5.93	-5.42	-4.68	9.8		
